Measurements as given in US12312359B2 (Vitae Pharmaceuticals, LLC, priority 2016, dated 2025).

Experiments:
[1] = system: human acute monocytic leukemia cell line MV-4-11; test: Assay 2: cell proliferation assay (ATP quantitation, CellTiter-Glo), MV-4-11; type: cell-based; settings: Homo sapiens, MV4-11, 72 h, MV-4-11 cells
Procedure: Potencies of inhibitor compounds against cell proliferation was assessed against the human acute monocytic leukemia cell line MV-4-11 (ATCC® CRL-9591™) based on ATP quantitation. MV-4-11 cells or toxicity control HL-60 cells (ATCC® CCL-240™) were incubated in 96-well tissue culture plates (1.67×10^4 cells in 200 μL culture media containing 10% FBS per well) with or without test compound for 72 h at 37° C., 5% CO2. After incubation, each well was mixed by pipetting and 95 μL from each well was transferred to a well in 96-well black OptiPlate® plates (PerkinElmer). An equal volume of CellTiter-Glo® Luminescent Cell Viability Assay reagent (Promega) was added to each well, followed by mixing for 5 min on an orbital plate shaker. Luminescence was measured on a Wallac EnVision 2104 Multilabel Reader (PerkinElmer) to quantitate ATP.

[2] = molecular target: T1, biotinylated wild-type menin and MLL-AF9 fusion protein (menin/MLL binding) (Homo sapiens, UniProt O00255); test: Assay 1: menin/MLL binding AlphaLISA assay, wild-type menin; settings: Table 30; column head does not say wild-type or mutated menin
T1 construct: made in house; host or cells: menin: E. coli; MLL-AF9-FLAG: HEK293 cells, used as cleared lysate
T1 sequence (O00255 1-610): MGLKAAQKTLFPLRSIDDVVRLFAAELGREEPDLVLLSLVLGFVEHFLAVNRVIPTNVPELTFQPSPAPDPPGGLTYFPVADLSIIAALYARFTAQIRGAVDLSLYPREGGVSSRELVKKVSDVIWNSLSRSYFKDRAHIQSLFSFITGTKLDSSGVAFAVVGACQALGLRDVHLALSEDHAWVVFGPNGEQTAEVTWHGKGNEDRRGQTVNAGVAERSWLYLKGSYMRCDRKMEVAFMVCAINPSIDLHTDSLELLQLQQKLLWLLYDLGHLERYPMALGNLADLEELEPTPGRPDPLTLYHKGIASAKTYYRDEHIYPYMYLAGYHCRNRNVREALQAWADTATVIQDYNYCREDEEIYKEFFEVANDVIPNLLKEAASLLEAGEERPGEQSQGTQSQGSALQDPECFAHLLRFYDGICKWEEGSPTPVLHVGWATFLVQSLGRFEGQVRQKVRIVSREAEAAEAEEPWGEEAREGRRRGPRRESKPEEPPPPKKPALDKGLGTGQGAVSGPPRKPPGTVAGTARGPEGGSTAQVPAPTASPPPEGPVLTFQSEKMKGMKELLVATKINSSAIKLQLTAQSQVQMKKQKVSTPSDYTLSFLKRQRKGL
Procedure: Potencies of inhibitor compounds against menin/MLL binding were assessed by AlphaLISA assay using biotinylated (1) wild-type menin or (2) mutated menin (described in Huang et al, 2012, Nature, 482, 542-546) and MLL-AF9 fusion protein bearing a FLAG epitope at its C-terminus. Menin proteins were expressed in E. coli and covalently modified with biotin using EZ-Link™ Sulfo-NHS-Biotin (ThermoFisher Cat.No. 21217) according to manufacturer's protocol. MLL1-1,396 fused to AF91-92 and the C-terminal FLAG peptide was expressed in HEK293 cells and used as a lysate cleared at 21,000×g for 10 min.
Compounds (2 μL of solutions in DMSO) were dispensed in white 96-well half-area plates (Corning Cat.No. 3693) and incubated for 30 min at RT with 5 nM biotinylated menin and appropriate amount of MLL-AF9-FLAG lysate in 40 μL of 50 mM Tris-HCl buffer pH 7.4 containing 5% (v/v) DMSO, 50 mM NaCl, 0.01% (w/v) bovine serum albumin (BSA) and 1 mM DTT. To this incubation mixture, 40 μL of AlphaLISA anti-FLAG acceptor (PerkinElmer Cat.No. AL112C) and streptavidin donor (PerkinElmer Cat.No. 6760002) beads (10 μg/mL each) was added and incubation continued at RT for 60 min. Alpha (amplified luminescent proximity homogeneous assay) signal was measured on an Envision multi-label plate reader at the end of the incubation. All steps were conducted under dim fluorescent light.
These percent inhibition values were regressed against compound concentrations in the assay using four parameter logit non-linear curve fitting (XLFit, IDBS). The IC50 values were derived from the curve fitting as inflection points on the dose-response curves and are set out in Table 30 below.

Structure (SMILES) | EC50 [1] | IC50 [2]
CC(=O)NC(c1cc(F)ccc1Oc1cncnc1N1CCC2(CCN(Cc3ccc4[nH]c(=O)[nH]c4c3)C2)C1)C1CCCC1 (stereo not drawn) [Example 9, N-(cyclopentyl(5-fluoro-2-((4-(7-((2-oxo-2,3-dihydro-1H-benzo[d]imidazol-5-yl)methyl)-2,7-diazaspiro[4.4]nonan-2-yl)pyrimidin-5-yl)oxy)phenyl)methyl)acetamide] | ≥ 1000 nM | < 100 nM
CC(C)N(C(=O)c1cc(F)ccc1Oc1cncnc1N1CC2(CN(CC[C@H]3CC[C@H](NC(=O)CC(C)(C)C)CC3)C2)C1)C(C)C [Example 87, 2-((4-(6-(2-((1r,4r)-4-(3,3-dimethyl-butanamido)cyclo-hexyl)ethyl)-2,6-diazaspiro[3.3]heptan-2-yl)pyrimidin-5-yl)oxy)-5-fluoro-N,N-diisopropyl-benzamide] | 100 to 1000 nM | < 100 nM
CC(C)c1ncncc1-c1cc(F)ccc1Oc1cncnc1N1CC2(CN(CC3CCC(O)CC3)C2)C1 (stereo not drawn) [Example 65, 4-((6-(5-(4-fluoro-2-(4-isopropylpyrimidin-5-yl)phenoxy)pyrimidin-4-yl)-2,6-diazaspiro[3.3]heptan-2-yl)methyl)cyclohexanol] | 100 to 1000 nM | < 100 nM
CC(C)c1ncncc1-c1cc(F)ccc1Oc1cncnc1N1CC2(CC(NCc3ccccc3)CO2)C1 (stereo not drawn) [Example 159, N-benzyl-2-(5-(4-fluoro-2-(4-isopropylpyrimidin-5-yl)phenoxy)pyrimidin-4-yl)-5-oxa-2-azaspiro[3.4]octan-7-amine] | 100 to 1000 nM | < 100 nM
N#Cc1ccc(-c2cc(F)ccc2Oc2cncnc2N2CC3(CN(CC4CCC(O)CC4)C3)C2)c(C2CC2)c1 (stereo not drawn) [Example 151, 2-cyclopropyl-5′-fluoro-2′-((4-(6-((4-hydroxycyclohexyl)methyl)-2,6-diazaspiro[3.3]heptan-2-yl)pyrimidin-5-yl)oxy)-[1,1′-biphenyl]-4-carbonitrile] | ≥ 1000 nM | < 100 nM
CC(=O)Nc1ccc(CN2C(=O)C3(CCN(c4ncncc4Oc4ccc(F)cc4C(=O)N(C)C(C)C)C3)N=C2N)cc1 (stereo not drawn) [Example 251, 2-((4-(3-(4-acetamidobenzyl)-2-amino-4-oxo-1,3,7-triazaspiro[4.4]non-1-en-7-yl)pyrimidin-5-yl)oxy)-5-fluoro-N-isopropyl-N-methylbenzamide] | ≥ 1000 nM | < 100 nM
CC(C)n1nccc1-c1cc(F)ccc1Oc1cncnc1N1CC2(CN(CC3CCCC(F)(F)C3)C2)C1 (stereo not drawn) [Example 231, 2-((3,3-difluorocyclohexyl)methyl)-6-(5-(4-fluoro-2-(1-isopropyl-1H-pyrazol-5-yl)phenoxy)pyrimidin-4-yl)-2,6-diazaspiro[3.3] heptane] | 100 to 1000 nM | < 100 nM
CCOC(=O)c1ccccc1-c1cc(F)ccc1Oc1cncnc1N1CCC2(CCN(Cc3ccc4[nH]c(=O)[nH]c4c3)C2)C1 (stereo not drawn) [Example 223, ethyl 5′-fluoro-2′-((4-(7-((2-oxo-2,3-dihydro-1H-benzo[d]imidazol-5-yl)methyl)-2,7-diazaspiro[4.4]nonan-2-yl)pyrimidin-5-yl)oxy)-[1,1′-biphenyl]-2-carboxylate] | 100 to 1000 nM | < 100 nM
CC(C)n1nc(C(F)(F)F)cc1-c1cc(F)ccc1Oc1cncnc1N1CC2(CN(CC3(O)CCCCC3)C2)C1 [Example 72, 1-((6-(5-(4-fluoro-2-(1-isopropyl-3-(trifluoromethyl)-1H-pyrazol-5-yl)phenoxy)pyrimidin-4-yl)-2,6-diazaspiro[3.3]heptan-2-yl)methyl)cyclohexan-1-ol] | 100 to 1000 nM | < 100 nM
COC(=O)N(C)c1cc(F)ccc1Oc1cncnc1N1CCC2(CCN(Cc3ccc4[nH]c(=O)[nH]c4c3)C2)C1 (stereo not drawn) [Example 207, methyl (5-fluoro-2-((4-(7-((2-oxo-2,3-dihydro-1H-benzo[d]imidazol-5-yl)methyl)-2,7-diazaspiro[4.4]nonan-2-yl)pyrimidin-5-yl)oxy)phenyl) (methyl)carbamate] | 100 to 1000 nM | < 100 nM
CC(C)N(C(=O)c1cc(F)ccc1Nc1cncnc1N1CCC2(CC1)CN(CC(C)(C)O)C2)C(C)C [Example 16, 5-fluoro-2-((4-(2-(2-hydroxy-2-methylpropyl)-2,7-diazaspiro[3.5]nonan-7-yl)pyrimidin-5-yl)amino)-N,N-diisopropylbenzamide] | 100 to 1000 nM | < 100 nM

The remaining lines, values ahead:

EC50 [1] | IC50 [2] | Structure (SMILES)
100 to 1000 nM | < 100 nM | CCN(C(=O)C(C)C)c1cc(F)ccc1Oc1cncnc1N1CC2(CN(C(=O)C3Cc4ccc(S(C)(=O)=O)cc4C3)C2)C1 (stereo not drawn) [Example 117, N-ethyl-N-(5-fluoro-2-((4-(6-(5-(methylsulfonyl)-2,3-dihydro-1H-indene-2-carbonyl)-2,6diazaspiro[3.3]heptan-2-yl)pyrimidin-5-yl)oxy)phenyl)iso-butyramide]
< 100 nM | < 100 nM | CC(C)N(C(=O)c1cc(F)ccc1Oc1cncnc1N1CC2(CN(CC3CCOCC3)C2)C1)C(C)C [Example 112, 5-fluoro-N,N-diisopropyl-2-((4-(6-((tetrahydro-2H-pyran-4-yl)methyl)-2,6-diazaspiro[3.3]heptan-2-yl)pyrimidin-5-yl)oxy)benzamide]
< 100 nM | < 100 nM | Cn1c(-c2cc(F)ccc2Oc2cncnc2N2CCC3(CCN(Cc4ccc5[nH]c(=O)[nH]c5c4)C3)C2)c(C2CC2)ccc1=O (single isomer, unassigned) [Example 29A, 5-((7-(5-(2-(3-cyclopropyl-1-methyl-6-oxo-1,6-dihydropyridin-2-yl)-4-fluorophenoxy)pyrimidin-4-yl)-2,7-diazaspiro[4.4]nonan-2-yl)methyl)-1,3-dihydro-2H-benzo[d]imidazol-2-one]
< 100 nM | < 100 nM | Cn1c(-c2cc(F)ccc2Oc2cncnc2N2CCC3(CCN(Cc4ccc5[nH]c(=O)[nH]c5c4)C3)C2)c(C2CC2)ccc1=O (racemic) [Example 29, 5-((7-(5-(2-(3-cyclopropyl-1-methyl-6-oxo-1,6-dihydropyridin-2-yl)-4-fluorophenoxy)pyrimidin-4-yl)-2,7-diazaspiro[4.4]nonan-2-yl)methyl)-1,3-dihydro-2H-benzo[d]imidazol-2-one]
< 100 nM | < 100 nM | CC(C)c1ncncc1-c1cc(F)ccc1Oc1cncnc1N1CCC2(CCN(Cc3ccc4[nH]c(=O)[nH]c4c3)C2)C1 (single isomer, unassigned) [Example 160A, 5-((7-(5-(4-fluoro-2-(4-isopropylpyrimidin-5-yl)phenoxy)pyrimidin-4-yl)-2,7-diazaspiro[4.4]nonan-2-yl)methyl)-1,3-dihydro-2H-benzo[d]imidazol-2-one]
< 100 nM | < 100 nM | CC(C)C(=O)N(C)c1cc(F)ccc1Oc1cncnc1N1CC2(CN(CC[C@H]3CC[C@H](NC(=O)OC(C)(C)C)CC3)C2)C1 [Example 138, tert-butyl ((1r,4r)-4-(2-(6-(5-(4-fluoro-2-(N-methyl-isobutyramido)phenoxy)pyrimidin-4-yl)-2,6-diazaspiro [3.3]heptan-2-yl)ethyl)cyclohexyl)carbamate]
< 100 nM | < 100 nM | CC(C)N(C(=O)c1cc(F)ccc1Oc1cncnc1N1CC2(CCN(C(=O)Cc3ccc(C#N)cc3)C2)C1)C(C)C [Example 113, 2-((4-(6-(2-(4-cyanophenyl)acetyl)-2,6-diazaspiro[3.4]octan-2-yl)pyrimidin-5-yl)oxy)-5-fluoro-N,N-diisopropylbenzamide]
